Source: ChEMBL document CHEMBL1152492, “DNA-targeting pyrroloquinoline-linked butenone and chalcones: synthesis and biological evaluation” (Eur J Med Chem, 2009)
Calls of active or inactive are those of the source. No cut-off for these calls is given here.

How the values were obtained:
[1] = target: DNA topoisomerase 2-alpha (Homo sapiens) (UniProt P11388); test: Inhibition of human recombinant topoisomerase 2 assessed as induction of linear pBR322 DNA formation at 15 uM by agarose gel electrophoresis
Chain of DNA topoisomerase 2-alpha (Homo sapiens) (P11388 whole entry): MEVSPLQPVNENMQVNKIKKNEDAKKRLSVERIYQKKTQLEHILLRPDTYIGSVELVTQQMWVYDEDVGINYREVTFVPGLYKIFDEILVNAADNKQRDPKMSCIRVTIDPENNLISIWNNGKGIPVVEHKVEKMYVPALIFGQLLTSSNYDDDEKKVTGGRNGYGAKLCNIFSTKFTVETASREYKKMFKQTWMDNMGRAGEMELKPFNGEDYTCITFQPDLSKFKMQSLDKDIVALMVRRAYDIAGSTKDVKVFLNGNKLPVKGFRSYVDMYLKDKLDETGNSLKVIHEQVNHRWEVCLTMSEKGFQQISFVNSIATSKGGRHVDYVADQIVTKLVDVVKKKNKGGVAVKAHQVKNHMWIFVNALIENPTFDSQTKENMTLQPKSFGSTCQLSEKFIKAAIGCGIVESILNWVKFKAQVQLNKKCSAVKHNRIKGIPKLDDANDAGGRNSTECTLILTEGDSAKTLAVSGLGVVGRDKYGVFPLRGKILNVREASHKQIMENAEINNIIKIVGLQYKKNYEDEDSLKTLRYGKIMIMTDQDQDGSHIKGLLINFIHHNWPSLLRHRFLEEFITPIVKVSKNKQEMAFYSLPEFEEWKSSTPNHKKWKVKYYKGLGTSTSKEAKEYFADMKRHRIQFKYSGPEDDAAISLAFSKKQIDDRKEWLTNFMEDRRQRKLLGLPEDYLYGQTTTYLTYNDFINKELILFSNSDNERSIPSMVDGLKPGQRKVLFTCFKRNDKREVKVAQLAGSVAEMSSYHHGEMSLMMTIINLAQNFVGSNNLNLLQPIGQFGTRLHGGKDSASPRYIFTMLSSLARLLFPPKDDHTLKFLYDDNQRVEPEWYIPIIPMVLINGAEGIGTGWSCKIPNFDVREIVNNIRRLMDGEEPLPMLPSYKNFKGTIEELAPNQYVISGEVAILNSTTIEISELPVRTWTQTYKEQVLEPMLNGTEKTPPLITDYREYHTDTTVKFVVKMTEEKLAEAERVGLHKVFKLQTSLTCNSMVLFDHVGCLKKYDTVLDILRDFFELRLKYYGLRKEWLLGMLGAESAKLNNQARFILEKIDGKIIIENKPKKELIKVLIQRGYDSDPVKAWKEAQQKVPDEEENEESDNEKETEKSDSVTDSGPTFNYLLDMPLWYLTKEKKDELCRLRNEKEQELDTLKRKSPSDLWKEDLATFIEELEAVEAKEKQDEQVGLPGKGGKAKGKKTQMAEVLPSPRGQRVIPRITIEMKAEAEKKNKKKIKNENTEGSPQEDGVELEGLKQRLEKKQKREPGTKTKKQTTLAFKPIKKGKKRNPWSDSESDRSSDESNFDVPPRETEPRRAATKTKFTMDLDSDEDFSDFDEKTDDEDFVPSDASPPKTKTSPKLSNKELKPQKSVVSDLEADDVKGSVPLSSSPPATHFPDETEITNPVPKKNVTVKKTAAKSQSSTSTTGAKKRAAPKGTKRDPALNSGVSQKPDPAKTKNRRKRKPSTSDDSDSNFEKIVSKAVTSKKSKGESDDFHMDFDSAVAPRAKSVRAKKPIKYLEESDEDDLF

Nucleic Acid = test: Binding affinity to salmon testes DNA assessed as occurrence of intercalative molecular complex by linear flow dichroism; assay type: nucleic-acid assay; settings: Salmonidae
[2] = target: DNA topoisomerase 2-alpha (Homo sapiens) (UniProt P11388); test: Inhibition of human recombinant topoisomerase 2-mediated relaxation of supercoiled pBR322 DNA after 60 mins by agarose gel electrophoresis
HeLa = test: Antiproliferative activity against human HeLa cells after 72 hrs by trypan blue assay; assay type: functional, cell-based
HL-60 = test: Antiproliferative activity against human HL60 cells after 72 hrs by trypan blue assay; assay type: functional, cell-based; settings: HL-60, 72 h
[3] = target: DNA topoisomerase 2-alpha (Homo sapiens) (UniProt P11388); test: Inhibition of human recombinant topoisomerase 2-mediated relaxation of supercoiled pBR322 DNA at 10 uM after 60 mins by agarose gel electrophoresis
[4] = target: DNA topoisomerase 2-alpha (Homo sapiens) (UniProt P11388); test: Inhibition of human recombinant topoisomerase 2 assessed as induction of linear pBR322 DNA formation at 50 uM by agarose gel electrophoresis
[5] = target: DNA topoisomerase 2-alpha (Homo sapiens) (UniProt P11388); test: Inhibition of human recombinant topoisomerase 2 assessed as induction of linear pBR322 DNA formation upto 20 uM by agarose gel electrophoresis
[6] = target: DNA topoisomerase 2-alpha (Homo sapiens) (UniProt P11388); test: Inhibition of human recombinant topoisomerase 2 catalytic activity at 20 uM by agarose gel electrophoresis
[7] = Antiproliferative activity against human JR8 cells after 72 hrs by trypan blue assay; assay type: functional, cell-based; settings: JR8, 72 h

Row | SMILES | Activity [1] | Activity (Nucleic Acid) | Activity [2] | IC50 (HeLa) [µM] | IC50 (HL-60) [µM] | Activity [3] | Activity [4] | Activity [5] | Activity [6] | IC50 [7] [µM]
1 | COc1cc(NS(C)(=O)=O)ccc1Nc1c2ccccc2nc2ccccc12 | Active | Active |  |  |  |  |  |  |  | 
2 | O=C(/C=C/c1ccc([N+](=O)[O-])cc1)c1ccc(Nc2ccnc3ccc4[nH]ccc4c23)cc1 |  |  | Dose-dependent effect | 10.4 | 4.4 | Active | inactive | inactive | Active | 1.2
3 | CC(=O)/C=C/c1ccc(Nc2ccnc3ccc4[nH]ccc4c23)cc1 |  | Active | Dose-dependent effect | 7 | 2.3 |  | inactive | inactive | inactive | 1.6
4 | O=C(/C=C/c1ccc[nH]1)c1ccc(Nc2ccnc3ccc4[nH]ccc4c23)cc1 |  |  |  | 18.1 | 5.6 |  |  |  |  | 3.3
5 | CC(=O)/C=C/c1ccccc1 [BUTENONE] |  | inactive |  |  |  |  |  |  |  | 
6 | O=C(/C=C/c1cccs1)c1ccc(Nc2ccnc3ccc4[nH]ccc4c23)cc1 |  |  |  | 5.3 | 3.2 |  |  |  |  | 2.1
7 | O=C(/C=C/c1ccc[nH]1)c1ccccc1 |  | inactive |  | > 20 | > 20 |  |  |  |  | > 20
8 | O=C(/C=C/c1ccc([N+](=O)[O-])cc1)c1ccccc1 |  | inactive |  | > 20 | 6 |  |  |  | inactive | 7.8
9 | Cc1c2ccncc2c(C)c2c1[nH]c1ccccc12 [ELLIPTECINE] |  | Active |  |  |  |  |  |  |  | 1.1
